In US20240285599A1, “Mature-Hepatocyte Transdifferentiation Suppressing Composition” (OSAKA UNIVERSITY, priority 2021, published 2024):

Assays:
Assay type in all cases: cell-based
[1] = tested on: human cholangiocarcinoma cell line KKU213; experiment: Cell proliferation assay (IncuCyte) of cholangiocarcinoma cell line KKU213
Experimental: (§1) A human hepatoma cell line HepG2, and human cholangiocarcinoma cell lines HuCCT1, HuCCA1, and KKU213 were obtained from the JCRB Cell Bank. The HepG2 and KKU213 cells were cultured in a Dulbecco's modified Eagle's medium (DMEM; Nacalai Tesque, Inc., Japan) having added thereto 10% heat-inactivated fetal calf serum (FCS; Gibco, USA). The HuCCT1 cells were cultured in an RPMI medium (Nacalai Tesque, Inc., Japan) containing 10% FCS. The HuCCA1 cells were cultured in D-MEM/Ham's F-12 (containing L-glutamine and phenol red) (Wako Pure Chemical Industries, Ltd., Japan) having added thereto 10% FCS. All the cells were cultured with a CO2 incubator at 37° C. The cells were detached with trypsin (Nacalai Tesque, Inc., Japan), and were passaged. Those cells were routinely examined for mycoplasma.
(§2) The transfection of siRNA or a plasmid into cells was performed with Lipofectamine RNAiMAX Transfection Reagent (Thermo Fisher Scientific, Inc., USA) or Lipofectamine 2000 (Thermo Fisher Scientific, Inc., USA), respectively, and with Opti-MEM (Thermo Fisher Scientific, Inc., USA). The transfection of the siRNA was performed as follows: the cells were dispersed at a concentration of 100,000 cells/mL; 10 μM of the siRNA was mixed into 100 μL of the Opti-MEM at a ratio of 1 μL, and the mixture was left at rest for 5 minutes; and then 3 μL of the RNAiMAX was mixed into the mixture, and the whole was left at rest for 15 minutes, followed by administration to the supernatant of the previously dispersed cells. Further, a medium change was performed 24 hours thereafter.
(§3) Hepatocytes or cholangiocarcinoma cells were inoculated on a 96-well plate, and their cell proliferation was analyzed with IncuCyte (trademark) Si (Sartorius AG, Germany) in accordance with the manufacturer's instructions.
(§4) Two kinds of NIK siRNA (the NIK KD #1 and the NIK KD #2) were introduced into each of human cholangiocarcinoma cell lines HuCCT1, HuCCA1, and KKU213 to knock down MAP3K14 (NIK). […]

[2] = tested on: human cholangiocarcinoma cell line HuCCA1; experiment: Cell proliferation assay (IncuCyte) of cholangiocarcinoma cell line HuCCA1
Experimental: as §1, §2, §3, §4

[3] = tested on: TRAF3/PTEN knockdown primary human hepatocyte (PHH); experiment: KRT19 mRNA quantification and immunoblotting (P52) in TRAF3/PTEN knockdown primary human hepatocyte; conditions: PHH (PTKD #1); for increase in expression of P52 by knockdown of TRAF3 and PTEN: western blot
Experimental: Human hepatocyte chimeric mice were generated in accordance with the protocol of the previous report (Hasegawa M, et al. Biochem Biophys Res Commun. 2011; 405(3): 405-410). Ganciclovir was administered to each of highly immunocompromised NOG mice (TK-NOG) each having a liver in which a herpes simplex virus type 1 thymidine kinase transgene had been expressed to induce liver injury, followed by the transplantation of human hepatocytes. As described in the previous report (Murai K, et al. Sci Rep. 2020; 10(1): 941), primary human hepatocytes were collected from the human hepatocyte chimeric mice each having a chimeric liver rate of 90% or more by using a two-step collagenase-pronase reflux method. It was recognized by FACS that the human hepatocytes accounted for 90% or more of the collected cells. Those cells were spread on a collagen-coated dish and cultured.
as §2
A procedure for western blotting is as described in the previous report (Tanaka S, et al. Hepatology. 2016; 64(6): 1994-2014). The protein extracts of cells and animal tissues were prepared by using a lysis buffer having added thereto a protease inhibitor (Nacalai Tesque, Inc., Japan) and a phosphatase inhibitor (Nacalai Tesque, Inc., Japan). In western blotting for the detection of NIK, MG-132 (ChemScene, USA) was administered at a concentration of 5 μM 4 hours before protein recovery. The following antibodies were used in immunodetection: TRAF3 (1:1,000 Cell Signaling, #4729), PTEN (1:1,000 Cell Signaling, #9188), KRT19 (1:50,000 Abcam, #ab52625), p100/p52 (1:1,000 Cell Signaling, #4882), NIK (1:1,000 Cell Signaling, #4994), and β-actin (1:10,000 Sigma-Aldrich Co., LLC, #A5316). Anti-mouse IgG, HRP-linked whole Ab sheep (Cytiva, Japan), or anti-rabbit IgG, HRP-linked whole Ab donkey (Cytiva, Japan) was used as a secondary antibody, and luminescence analysis was performed with SuperSignal (trademark) West Pico PLUS Chemiluminescent Substrate (Thermo Fisher Scientific, Inc., USA).
Total RNA was extracted from a cell line and a human liver tissue with RNeasy Mini Kit (QIAGEN N.V., Nederland). Then, 1 μg of the total RNA was reverse-transcribed with ReverTra Ace qPCR RT Kit (Toyobo Co., Ltd., Tokyo) to synthesize complementary DNA. The mRNA expression of each of the following genes was analyzed through use of a TaqMan gene expression assay: human GAPDH (Hs02758991), human TRAF3 (Hs00936781), human PTEN (Hs02621230), human KRT19 (Hs00761767), human NIK (Hs01089753), mouse Gapdh (Mm09999915), mouse Traf3 (Mm00495752), mouse Pten (Mm00477208), mouse Krt19 (Mm00492980), mouse NIK (Mm00444166), and mouse Alb (Mm00802090). The gene expression amount of a human and the gene expression amount of a mouse were normalized to the expression amount of GAPDH.
The effect of TRAF3/PTEN inhibition on the expression of a bile duct marker in each of a primary human hepatocyte (hereinafter also referred to as “PHH”) and a human hepatoma cell line HepG2 cell (hereinafter also referred to as “HepG2”) was evaluated. The PHH and the HepG2 are each a mature hepatocyte having an albumin-producing ability. The TRAF3 and PTEN of each of the HepG2 and the PHH were knocked down with siRNA. […]

[4] = NIK siRNA transfected, 72 h, FIG. 13
[5] = NIK siRNA transfected, cells recovered after 72 h culture, FIG. 13

COc1cc(C(N)=O)nc(-c2cccc(C#C[C@]3(O)CCN(C)C3=O)c2)c1 [NIKSMI, (R)-6-(3-((3-hydroxy-1-methyl-2-oxopyrrolidin-3-yl)ethynyl)phenyl)-4-methoxypicolinamide]
significantly suppressed: proliferation of cholangiocarcinoma cells ([1]; 9 μM or 15 μM added at beginning of culture, FIG. 21C) | proliferation of cholangiocarcinoma cells ([2]; 9 μM or 15 μM added at beginning of culture, FIG. 21B) | increase in expression of KRT19 by knockdown of TRAF3 and PTEN ([3]; NIKSMI 9 μM added 24 h after start of culture, cells recovered 48 h later, FIG. 11) | increase in expression of P52 by knockdown of TRAF3 and PTEN ([3]; NIKSMI 9 μM, 48 h, FIG. 11)

NIK KD #1: siRNA of NIK, SEQ ID NO: 2 (sense) and 3 (antisense), from Thermo Fisher Scientific (sense CAAACGCAAAGAGCAAGAAUU; antisense UUCUUGCUCUUUGCGUUUGCA; listed as RNA, chemistry not given here)
significantly suppressed: proliferation of cholangiocarcinoma cells ([1]; NIK siRNA introduced, FIG. 20) | proliferation of cholangiocarcinoma cells ([2]; NIK siRNA introduced, FIG. 19) | increase in expression of P52 by knockdown of TRAF3 and PTEN [3, 4] | increase in expression of KRT19 by knockdown of TRAF3 and PTEN [3, 5]

NIK KD #2: siRNA of NIK, SEQ ID NO: 4 (sense) and 5 (antisense), from Thermo Fisher Scientific (sense GCAAAGAGCAAGAACCAAAUU; antisense UUUGGUUCUUGCUCUUUGCGU; listed as RNA, chemistry not given here)
significantly suppressed: proliferation of cholangiocarcinoma cells ([1]; NIK siRNA introduced, FIG. 20) | proliferation of cholangiocarcinoma cells ([2]; NIK siRNA introduced, FIG. 19) | increase in expression of P52 by knockdown of TRAF3 and PTEN [3, 4] | increase in expression of KRT19 by knockdown of TRAF3 and PTEN [3, 5]
